Tests used:
[1] = tested on: DLD-1; assay: In vitro chemosensitivity, microtetrazolium (MTT) assay, DLD-1; type: cell-based; conditions: DLD-1 human colon adenocarcinoma, concentration reducing growth rate by 50% of untreated control
Protocol: (§1) The cytotoxic properties of selected examples were evaluated against a panel of established human tumour cell lines.
(§2) HT-29 primary adenocarcinomas of the human colon.
(§3) Chemosensitivity in vitro was assessed using the microtetrazolium assay (MTT assay) (Twentyman & Luscombe, 1987).
(§4) Examples were soluble in 5% ethanol/saline. To each well, 20 μl of drug solution was added to give a final drug concentration of 0.1-100 μg/ml at four log increments. Solvent controls were used throughout, and the first row of each plate contained media plus drug in the absence of any cells. Each point is the result of three separate experiments and cytotoxic effects are expressed in terms of percent survival, taking the optical density of the control plates to represent 100% survival.
(§5) IC50 values are the average concentrations of drug required to reduce the growth rate by 50% of the untreated control system.

[2] = tested on: HRT-18; assay: In vitro chemosensitivity, microtetrazolium (MTT) assay, HRT-18; type: cell-based; conditions: HRT-18 human rectum adenocarcinoma, concentration reducing growth rate by 50% of untreated control
Protocol: as §1
(§6) K562--a human chronic myelogenous leukaemia (Lozzio and Lozzio, 1975). HRT--18--a human primary adenocarcinoma from the human rectum (Tompkins et al, 1974).
as §3, §4, §5

[3] = tested on: HT-29; assay: In vitro chemosensitivity, microtetrazolium (MTT) assay, HT-29; type: cell-based; conditions: HT-29 human colon adenocarcinoma, concentration reducing growth rate by 50% of untreated control
Protocol: as §1, §2, §3, §4, §5

[4] = tested on: K562; assay: In vitro chemosensitivity, microtetrazolium (MTT) assay, K562; type: cell-based; conditions: K562 human chronic myelogenous leukaemia, concentration reducing growth rate by 50% of untreated control
Protocol: as §1, §6, §3, §4, §5

[5] = tested on: HCLO; assay: In vitro chemosensitivity, microtetrazolium (MTT) assay, HCLO; type: cell-based, human; conditions: concentration reducing growth rate by 50% of untreated control
Protocol: as §1, §2, §3, §4, §5

[6] = tested on: rodents; conditions: in rodents; cited from earlier work
[7] = tested on: man; conditions: in man; cited from earlier work

Row | SMILES | IC50 [1] | IC50 [3] | IC50 [4] | IC50 [2] | IC50 [5] | IC50 ([5]; Homo sapiens) | maximum dose [6] | maximum dose [7]
1 | CSCC[C@H](N)C(=O)NCCCNc1cccc2c1C(=O)c1ccccc1C2=O [Example 12] | 4.1 µM | 7.8 µM | 17.2 µM | 10.4 µM | 11.8 µM | – | – | –
2 | CC(C)(C)OC(=O)N[C@H](Cc1ccccc1)C(=O)NCCCNc1cccc2c1C(=O)c1ccccc1C2=O [Example 18, 1-[(3-N-tertiarybutoxycarbonyl-D-phenylalanylamino-propyl)amino]-anthracene-9,10-dione] | 13.2 µM | 2.5 µM | 19.8 µM | 7.7 µM | 17.4 µM | – | – | –
3 | COc1cccc2c1C(=O)c1c(O)c3c(c(O)c1C2=O)C[C@@](O)(C(=O)CO)C[C@@H]3O[C@H]1C[C@H](N)[C@H](O)[C@H](C)O1 [doxorubicin] | – | – | – | – | – | – | 5 mg/kg | 1 to 2 mg/kg

The next lines start with results.

Row | IC50 [1] | IC50 [3] | IC50 [4] | SMILES | IC50 [2] | IC50 [5] | IC50 ([5]; Homo sapiens) | maximum dose [6] | maximum dose [7]
4 | 2.1 µM | 0.6 µM | 14.2 µM | N[C@@H](Cc1ccc(O)cc1)C(=O)NCCCNc1cccc2c1C(=O)c1ccccc1C2=O [Example 15, 1-[3-(L-tyrosinylaminopropyl)amino]-anthracene-9,10-dione] | 3 µM | 6.7 µM | – | – | –
5 | 8.6 µM | 14.2 µM | 22.8 µM | N[C@H](Cc1ccccc1)C(=O)NCCCCNc1cccc2c1C(=O)c1ccccc1C2=O [Example 20, 1-[(4-D-phenylalanylaminobutyl)amino]-anthracene-9,10-dione] | 16.8 µM | – | 21.4 µM | – | –
